Data: patent publication US20170226072A1, “1,4-Disubstituted Piperidines, 1,4-Disubstituted Piperazines, 1,4-Disubstituted Diazepines, and 1,3-Disubstituted Pyrrolidine Compounds” (University of Kentucky Research Foundation, priority 2013, published 2017)
Where “and” joins values, the source holds several entries; their conditions need not be identical. Equal values may be shown once.

Columns and labels:
[1] = biological target: T1, VMAT2 (Rattus norvegicus, UniProt Q01827); experiment: [3H]Dihydrotetrabenazine ([3H]DTBZ) binding assay, vesicular preparation; conditions: rat brain synaptic vesicles, 3 nM [3H]DTBZ; read-out: Inhibition of [3H]DTBZ binding (Ki) VMAT2
T1 construct: conducted using isolated synaptic vesicle preparations; from tissue; host or cells: rat striatum, isolated synaptic vesicles
T1 sequence (Q01827 whole entry): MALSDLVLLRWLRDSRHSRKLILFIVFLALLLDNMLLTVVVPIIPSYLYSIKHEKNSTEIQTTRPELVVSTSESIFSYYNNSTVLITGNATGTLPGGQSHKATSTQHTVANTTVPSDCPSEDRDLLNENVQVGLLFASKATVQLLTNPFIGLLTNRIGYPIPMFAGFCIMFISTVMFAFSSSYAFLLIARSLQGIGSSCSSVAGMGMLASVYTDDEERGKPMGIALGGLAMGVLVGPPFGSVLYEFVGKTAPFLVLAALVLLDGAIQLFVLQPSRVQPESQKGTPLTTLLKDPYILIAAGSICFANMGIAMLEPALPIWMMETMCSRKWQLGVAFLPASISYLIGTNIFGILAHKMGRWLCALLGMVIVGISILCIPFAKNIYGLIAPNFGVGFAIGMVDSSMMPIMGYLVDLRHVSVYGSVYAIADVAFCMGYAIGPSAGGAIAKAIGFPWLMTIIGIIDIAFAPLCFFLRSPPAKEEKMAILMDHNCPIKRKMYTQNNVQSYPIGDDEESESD
Procedure: [^3H]Dihydrotetrabenazine ([^3H]DTBZ) Binding Assay, Vesicular Preparation
The resulting supernatant (S1) was then centrifuged at 22,000 g for 10 min at 4° C. The synaptosomal pellets (P2) were homogenized in 18 mL of ice-cold Milli-Q water and exposed for 5 min for lysing synaptosomes. Osmolarity was restored by addition of 2 mL of 25 mM HEPES with 100 mM dipotassium tartrate (pH 7.5). Samples were centrifuged at 20,000 g for 20 min at 4° C. to remove lysed synaptosomal membranes. MgSO4 (1 mM) was added to the supernatant (S3), and was centrifuged at 100,000 g for 45 min at 4° C. […] Aliquot parts (100 μL) of suspension of vesicle membrane protein were incubated in assay buffer (25 mM HEPES, 100 mM dipotassium tartrate, 5 mM MgSO4, 0.1 mM EDTA and 0.05 mM EGTA, pH 7.5, at 25° C.) in the presence of 3 nM [^3H]DTBZ and at least 7 concentrations (1 nM-1 mM) of compound for 1 hr at room temperature. Nonspecific binding was determined in the presence of 20 μM tetrabenazine, a standard compound. Assays were performed in duplicate using a 96-well plate format. Reactions were terminated by filtration of samples on a Unifilter-96 GF/B filter plates (presoaked in 0.5% polyethylenimine), using a FilterMate harvester (Packard BioScience Co., Meriden, Conn.).
After washing 5 times with 350 μL of the ice-cold wash buffer (25 mM HEPES, 100 mM dipotassium tartrate, 5 mM MgSO4 and 10 mM NaCl, pH 7.5), filter plates were dried, sealed and each well filled with 40 μL Packard's MicroScint 20 cocktail. Bound [^3H]DTBZ was measured using a Packard TopCount NXT scintillation counter with a Packard Windows NT based operating system.

[2] = biological target: T2, hERG channel (Homo sapiens, UniProt Q12809); experiment: [3H]Dofetilide binding assay, HEK-293 cell membrane preparation; conditions: HEK-293 cell membranes expressing hERG, 5 nM [3H]dofetilide; read-out: hERG [3H]Dofetilide Binding Inhibition Mean ± SEM (IC50)
T2 construct: expressed in transfected cells
T2 sequence (Q12809 whole entry): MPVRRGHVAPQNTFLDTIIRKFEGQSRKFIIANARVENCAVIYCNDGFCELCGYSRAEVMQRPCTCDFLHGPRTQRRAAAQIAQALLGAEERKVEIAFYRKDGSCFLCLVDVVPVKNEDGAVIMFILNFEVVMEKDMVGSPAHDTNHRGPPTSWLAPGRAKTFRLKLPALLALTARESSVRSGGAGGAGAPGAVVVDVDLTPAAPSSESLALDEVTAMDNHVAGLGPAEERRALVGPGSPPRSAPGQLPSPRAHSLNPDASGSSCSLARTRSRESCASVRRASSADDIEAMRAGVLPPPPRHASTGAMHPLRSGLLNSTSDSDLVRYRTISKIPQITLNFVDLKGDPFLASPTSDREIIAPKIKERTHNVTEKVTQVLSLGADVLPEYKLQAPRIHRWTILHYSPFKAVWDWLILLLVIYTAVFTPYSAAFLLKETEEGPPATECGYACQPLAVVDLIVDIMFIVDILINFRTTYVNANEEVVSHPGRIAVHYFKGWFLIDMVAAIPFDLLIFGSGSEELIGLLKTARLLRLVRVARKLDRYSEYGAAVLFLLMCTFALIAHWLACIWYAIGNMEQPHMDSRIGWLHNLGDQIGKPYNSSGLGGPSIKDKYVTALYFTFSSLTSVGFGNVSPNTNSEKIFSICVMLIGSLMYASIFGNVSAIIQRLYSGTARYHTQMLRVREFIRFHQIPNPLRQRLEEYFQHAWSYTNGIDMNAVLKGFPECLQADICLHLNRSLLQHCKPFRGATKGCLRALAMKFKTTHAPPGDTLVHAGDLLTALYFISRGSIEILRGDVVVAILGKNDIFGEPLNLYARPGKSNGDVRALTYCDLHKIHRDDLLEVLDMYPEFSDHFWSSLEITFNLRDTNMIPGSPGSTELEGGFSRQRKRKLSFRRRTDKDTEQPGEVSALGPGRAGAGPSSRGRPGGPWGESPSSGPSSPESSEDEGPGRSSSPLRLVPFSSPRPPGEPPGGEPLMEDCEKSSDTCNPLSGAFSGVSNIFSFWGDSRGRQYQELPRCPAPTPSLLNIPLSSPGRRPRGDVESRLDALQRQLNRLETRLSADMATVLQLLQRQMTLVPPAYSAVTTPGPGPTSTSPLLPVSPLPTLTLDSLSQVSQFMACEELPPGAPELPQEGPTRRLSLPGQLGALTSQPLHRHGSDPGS
Procedure: [^3H]Dofetilide Binding Assay, HEK-293 Cell Membrane Preparation
[^3H]Dofetilide binding assays were conducted using commercially available HEK-293 cell membranes which stably express the hERG channel. Membranes were suspended in assay buffer (50 mM Tris, 10 mM KCl, 1 mM MgCl2, pH 7.4) prior to the experiment. Assays were performed in duplicate in a total volume of 250 μL. Aliquots of the HEK-293 cell membrane suspension which contained 5 μg membrane protein were added to tubes containing assay buffer, 5 nM [^3H]dofetilide and a range of concentrations of analog (10 nM-100 μM). Nonspecific binding was determined in the presence of amitriptyline (1 mM). Samples were incubated for 1 hr. at 24° C., followed by rapid filtration. Radioactivity retained by the filters was determined by liquid scintillation spectrometry as described above for the [^3H]DA uptake assay. The affinity for the [^3H]dofetilide binding site on the hERG channel expressed in the HEK-293 cellular membrane was determined from the analog concentration response curves.

[3] = biological target: T1, VMAT2; experiment: [3H]Dopamine ([3H]DA) uptake assay, vesicular preparation; type: biochemical
Procedure: [^3H]Dopamine ([^3H]DA) Uptake Assay, Vesicular Preparation
Homogenates were centrifuged (2,000 g for 10 min at 4° C.), and then the supernatants were centrifuged (10,000 g for 30 min at 4° C.). Pellets were resuspended in 2 ml of 0.32 M sucrose solution and subjected to osmotic shock by adding 7 ml of ice-cold MilliQ water to the preparation. After 1 min, osmolarity was restored by adding 900 μl of 0.25 M HEPES buffer and 900 μl of 1.0 M potassium tartrate solution. Samples were centrifuged (20,000 g for 20 min at 4° C.), and the supernatants were centrifuged (55,000 g for 1 hr at 4° C.), followed by addition of 100 μl of 10 mM MgSO4, 100 μl of 0.25 M HEPES and 100 μl of 1.0 M potassium tartrate solution prior to the final centrifugation (100,000 g for 45 min at 4° C.). Final pellets were resuspended in 2.4 ml of assay buffer (25 mM HEPES, 100 mM potassium tartrate, 50 μM EGTA, 100 μM EDTA, 1.7 mM ascorbic acid, 2 mM ATP-Mg^2+, pH 7.4). Aliquots of the vesicular suspension (100 μl) were added to tubes containing assay buffer, various concentrations of compound (0.1 nM-10 mM) and 0.1 μM [^3H]DA in a final volume of 500 and incubated at 37° C. for 8 min. […] Reactions were terminated by filtration, and radioactivity retained by the filters was determined by liquid scintillation spectrometry (Tri-Carb 2100TR liquid scintillation analyzer; PerkinElmer Life and Analytical Sciences, Boston, Mass.).

[4] = biological target: T3, dopamine transporter (DAT) (Rattus norvegicus, UniProt P23977); experiment: [3H]DA uptake assay, striatal synaptosomal preparation; type: biochemical; conditions: rat striatal synaptosomes; read-out: DAT [3H]DA Uptake Inhibition Mean ± SEM (Ki)
T3 construct: from tissue; host or cells: rat striatum, synaptosomes
T3 sequence (P23977 whole entry): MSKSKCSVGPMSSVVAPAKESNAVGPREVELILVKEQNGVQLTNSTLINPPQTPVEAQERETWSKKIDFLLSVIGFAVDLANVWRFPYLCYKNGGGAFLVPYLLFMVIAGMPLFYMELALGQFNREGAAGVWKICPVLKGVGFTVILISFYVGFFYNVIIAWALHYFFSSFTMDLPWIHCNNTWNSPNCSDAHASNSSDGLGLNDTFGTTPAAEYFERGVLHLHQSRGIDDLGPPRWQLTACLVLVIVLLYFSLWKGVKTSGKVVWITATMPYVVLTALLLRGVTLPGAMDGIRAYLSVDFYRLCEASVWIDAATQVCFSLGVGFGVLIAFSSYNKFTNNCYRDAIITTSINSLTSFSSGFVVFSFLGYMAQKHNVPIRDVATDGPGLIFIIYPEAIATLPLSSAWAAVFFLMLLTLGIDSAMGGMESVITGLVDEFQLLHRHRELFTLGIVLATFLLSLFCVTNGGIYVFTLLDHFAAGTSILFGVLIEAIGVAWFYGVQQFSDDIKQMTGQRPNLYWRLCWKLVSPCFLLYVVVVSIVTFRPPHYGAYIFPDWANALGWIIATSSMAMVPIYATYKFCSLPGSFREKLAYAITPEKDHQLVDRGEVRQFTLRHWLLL
Procedure: [^3H]DA and [^3H]5-HT Uptake Assay, Synaptosomal Preparation
[^3H]DA and [^3H]5-HT uptake into striatal synaptosomes was determined to evaluate compound inhibition of the dopamine transporter (DAT) and the serotonin transporter (SERT), respectively. […] Homogenates were centrifuged at 2000 g for 10 min at 4° C., and resulting supernatants were centrifuged at 20,000 g for 17 min at 4° C. […] Assays were performed in duplicate in a total volume of 500 (for DAT assays) or 250 μL (for SERT assays). […] Reactions were terminated by addition of 3 mL of ice-cold assay buffer and subsequent filtration and radioactivity retained by the filters was determined by liquid scintillation spectrometry (Tri-Carb 2100TR liquid scintillation analyzer; PerkinElmer Life and Analytical Sciences, Boston, Mass.).

[5] = rat striatal synaptic vesicles, 0.1 μM [3H]DA, read-out: [3H]DA Uptake (Ki) VMAT2
[6] = synaptic vesicle preparations, summary of Table 1, read-out: inhibition of [3H]DA uptake, Ki

SMILES | Ki [1] | IC50 [2] | Ki [3, 5] | Ki [4] | Ki [3, 6]
COc1ccccc1CCN1CCC(CCc2ccccc2)CC1 [Compound 1, 1-(2-methoxyphenethyl)-4-phenethylpiperidine] | 255 ± 26 nM | 534 ± 142 nM | 30 ± 2 nM |  | 
COc1ccc(CCN2CCC(CCc3ccccc3)CC2)cc1OC [Compound 3] | 2800 ± 110 nM | 402 ± 72.7 nM | 56 ± 9 nM |  | 
COc1ccc(CCN2CCC(CCc3ccccc3)CC2)cc1 [Compound 4] | 1620 ± 190 nM | 622 ± 215 nM | 46 ± 3.7 nM |  | 
COc1ccccc1CCN1CCC(Cc2ccccc2)CC1 [Compound 5] | 2760 ± 310 nM |  | 130 ± 15 nM |  | 
COc1cccc(CCN2CCC(Cc3ccccc3)CC2)c1 [Compound 6] | 1530 ± 100 nM | 442 ± 221 nM | 77 ± 9.8 nM |  | 
COc1ccc(CCN2CCC(Cc3ccccc3)CC2)cc1OC [Compound 7] | 2990 ± 170 nM |  | 240 ± 34 nM |  | 
COc1ccc(CCN2CCC(Cc3ccccc3)CC2)cc1 [Compound 8] | 1940 ± 430 nM |  | 180 ± 11 nM |  | 
COc1cc(OC)c(OC)cc1CCC1CCN(CCc2ccccc2)CC1 [Compound 9] | 380 ± 49 nM | 8100 ± 585 nM | 94 ± 9.6 nM | 5.46 ± 0.12 µM | 
Clc1ccccc1CCN1CCC(CCc2ccccc2)CC1 [Compound 10] | 380 ± 5.8 nM | 666 ± 26.5 nM | 47 ± 6.3 nM |  | 
Fc1ccc(CCN2CCC(CCc3ccccc3)CC2)cc1 [Compound 11] | 1820 ± 79 nM | 353 ± 36 nM | 32 ± 3.8 nM |  | 
COc1cccc(CCC2CCN(CCc3ccccc3)CC2)c1 [Compound 14] | 320 ± 15 nM | 631 ± 88.8 nM | 56 ± 8.6 nM |  | 
COc1cccc(CCC2CCN(CCc3ccccc3OC)CC2)c1 [Compound 15] | 320 ± 55 nM | 790 ± 64.1 nM | 40 ± 7.5 nM |  | 
COc1cccc(CCC2CCN(CCc3cccc(OC)c3)CC2)c1 [Compound 16] | 230 ± 19 nM | 564 ± 131 nM | 85 ± 10 nM |  | 
COc1ccc(CCN2CCC(CCc3cccc(OC)c3)CC2)cc1 [Compound 17] | 450 ± 130 nM | 600 ± 87.8 nM | 130 ± 23 nM |  | 
COc1cccc(CCC2CCN(CCc3ccccc3Cl)CC2)c1 [Compound 18] | 460 ± 98 nM |  | 420 ± 49 nM |  | 
COc1cccc(CCC2CCN(CCc3ccc(F)cc3)CC2)c1 [Compound 19] | 960 ± 47 nM | 409 ± 42.9 nM | 69 ± 4 nM |  | 
COc1ccc(CCC2CCN(CCc3ccccc3)CC2)cc1 [Compound 20] | 510 ± 87 nM |  | 110 ± 7 nM |  | 
COc1ccc(CCC2CCN(CCc3ccccc3OC)CC2)cc1 [Compound 21] | 420 ± 19 nM | 323 ± 96.4 nM | 83 ± 9 nM |  | 
COc1ccc(CCC2CCN(CCc3cccc(OC)c3)CC2)cc1 [Compound 22] | 230 ± 47 nM | 479 ± 228 nM | 75 ± 4 nM |  | 

SMILES | Ki [1] | IC50 [2] | Ki [3, 5] | Ki [4] | Ki [3, 6]
COc1ccc(CCC2CCN(CCc3ccc(OC)cc3)CC2)cc1 [Compound 23] | 2470 ± 270 nM |  | 160 ± 12 nM |  | 
COc1ccc(CCC2CCN(CCc3ccc(F)cc3)CC2)cc1 [Compound 25] | 470 ± 67 nM | 1420 ± 384 nM | 60 ± 5 nM |  | 
COc1cccc(CCN2CCC(CCc3ccccc3OC)CC2)c1 [Compound 26, 1-(3-methoxyphenethyl)-4-(2-methoxyphenethyl)piperidine] | 150 to 190 nM and 150 nM | 607 ± 25.5 nM | 13 ± 1.5 nM |  | 9 to 20 nM
COc1ccc(CCN2CCC(CCc3ccccc3OC)CC2)cc1 [Compound 27] | 500 ± 100 nM | 479 ± 109 nM | 43 ± 2.8 nM |  | 
COc1ccccc1CCC1CCN(CCc2ccccc2Cl)CC1 [Compound 28, 1-(2-chlorophenethyl)-4-(2-methoxyphenethyl)piperidine] | 190 ± 20 nM | 1190 ± 181 nM | 20 ± 3 nM | 1.25 ± 0.307 µM | 9 to 20 nM
Fc1ccc(CCC2CCN(CCc3ccccc3)CC2)c(F)c1 [Compound 30] | 530 ± 110 nM | 552 ± 99.1 nM | 53 ± 5.5 nM |  | 
COc1ccccc1CCN1CCC(CCc2ccc(F)cc2F)CC1 [Compound 31] | 350 ± 48 nM | 317 ± 24.8 nM | 41 ± 12 nM |  | 
COc1cccc(CCN2CCC(CCc3ccc(F)cc3F)CC2)c1 [Compound 32] | 270 ± 15 nM | 327 ± 35.3 nM | 29 ± 5.5 nM |  | 
COc1ccc(CCN2CCC(CCc3ccc(F)cc3F)CC2)cc1 [Compound 33] | 1300 ± 170 nM | 1070 ± 152 nM | 70 ± 5.1 nM |  | 
Fc1ccc(CCC2CCN(CCc3ccccc3Cl)CC2)c(F)c1 [Compound 34] | 240 ± 38 nM |  | 110 ± 19 nM |  | 
Fc1ccc(CCN2CCC(CCc3ccc(F)cc3F)CC2)cc1 [Compound 35] | 1450 ± 240 nM | 201 ± 32.7 nM | 43 ± 14 nM |  | 
COc1ccc(CCC2CCN(CCc3ccccc3)CC2)c(F)c1 [Compound 36] | 290 ± 64 nM |  | 120 ± 8.5 nM |  | 
COc1ccc(CCC2CCN(CCc3ccccc3OC)CC2)c(F)c1 [Compound 37] | 330 ± 18 nM | 2870 ± 760 nM | 76 ± 10 nM |  | 
COc1cccc(CCN2CCC(CCc3ccc(OC)cc3F)CC2)c1 [Compound 38, 4-(2-fluoro-4-methoxyphenethyl)-1-(3-methoxyphenethyl)piperidine] | 190 ± 9 nM | 479 ± 64.3 nM | 83 ± 3.8 nM | 2.94 ± 0.27 µM | 
COc1ccc(CCN2CCC(CCc3ccc(OC)cc3F)CC2)cc1 [Compound 39] | 1610 ± 78 nM | 299 ± 45.9 nM | 44 ± 3.3 nM |  | 
COc1ccc(CCC2CCN(CCc3ccccc3Cl)CC2)c(F)c1 [Compound 40] | 230 ± 15 nM | 1410 ± 166 nM | 67 ± 21 nM |  | 
COc1ccc(CCC2CCN(CCc3ccc(F)cc3)CC2)c(F)c1 [Compound 41] | 600 ± 75 nM | 3600 ± 1220 nM | 60 ± 8.2 nM | 3.48 ± 0.415 µM | 
Fc1cc(F)cc(CCC2CCN(CCc3ccccc3)CC2)c1 [Compound 42] | 1100 ± 87 nM | 258 nM | 51 ± 3.5 nM |  | 
COc1ccccc1CCN1CCC(CCc2cc(F)cc(F)c2)CC1 [Compound 43] | 410 ± 38 nM | 427 ± 134 nM | 34 ± 3.9 nM |  | 

SMILES | Ki [1] | IC50 [2] | Ki [3, 5] | Ki [4] | Ki [3, 6]
COc1cccc(CCN2CCC(CCc3cc(F)cc(F)c3)CC2)c1 [Compound 44] | 250 ± 3 nM | 477 ± 42.9 nM | 28 ± 2.7 nM | 1.91 ± 0.568 µM | 
COc1ccc(CCN2CCC(CCc3cc(F)cc(F)c3)CC2)cc1 [Compound 45] | 2030 ± 130 nM |  | 120 ± 28 nM |  | 
Fc1cc(F)cc(CCC2CCN(CCc3ccccc3Cl)CC2)c1 [Compound 46] | 660 ± 58 nM |  | 180 ± 68 nM |  | 
Fc1ccc(CCN2CCC(CCc3cc(F)cc(F)c3)CC2)cc1 [Compound 47] | 1430 ± 280 nM | 440 ± 41.2 nM | 68 ± 16 nM |  | 
c1ccc(CCC2CCN(Cc3ccccc3)CC2)cc1 [Compound 48] | 21700 ± 2080 nM |  | 190 ± 63 nM |  | 
COc1ccccc1CN1CCC(CCc2ccccc2)CC1 [Compound 49] | 9360 ± 1320 nM | 568 ± 122 nM | 70 ± 7.5 nM |  | 
COc1cccc(CN2CCC(CCc3ccccc3)CC2)c1 [Compound 50] | 12700 ± 4280 nM |  | 190 ± 20 nM |  | 
COc1ccc(CN2CCC(CCc3ccccc3)CC2)cc1 [Compound 51] | 6230 ± 560 nM |  | 250 ± 27 nM |  | 
Clc1ccccc1CN1CCC(CCc2ccccc2)CC1 [Compound 52] | 44500 ± 17800 nM |  | 270 ± 42 nM |  | 
Fc1ccc(CN2CCC(CCc3ccccc3)CC2)cc1 [Compound 53] | 10100 ± 580 nM |  | 210 ± 12 nM |  | 
COc1ccc(CCN2CCN(CCc3ccc(OC)cc3)CC2)cc1 [Compound 57] | 6630 ± 840 nM |  | 410 ± 5 nM |  | 
Clc1ccccc1CCN1CCN(CCc2ccccc2)CC1 [Compound 63] | 1590 ± 260 nM | 2840 ± 287 nM | 63 ± 6.9 nM | 10.4 ± 1.85 µM | 
c1ccc(CCN2CCCN(CCc3ccccc3)CC2)cc1 [Compound 65] | 3170 ± 550 nM |  | 190 ± 17 nM |  | 
COc1ccccc1CCN1CCCN(CCc2ccccc2OC)CC1 [Compound 66] | 2020 ± 110 nM |  | 190 ± 26 nM |  | 
COc1cccc(CCN2CCCN(CCc3cccc(OC)c3)CC2)c1 [Compound 67] | 2240 ± 530 nM | 1120 ± 85.7 nM | 100 ± 10 nM |  | 
COc1ccc(CCN2CCCN(CCc3ccc(OC)cc3)CC2)cc1 [Compound 68] | 2880 ± 250 nM |  | 250 ± 15 nM |  | 
Clc1ccccc1CCN1CCCN(CCc2ccccc2Cl)CC1 [Compound 69] | 930 ± 21 nM |  | 170 ± 25 nM |  | 
Fc1ccc(CCN2CCCN(CCc3ccc(F)cc3)CC2)cc1 [Compound 70] | 5050 ± 770 nM | 57 ± 2.7 nM | 85 ± 5.2 nM |  | 
